Laboratory results: patent US8466162B2, “5-alkynyl-pyridines” (Boehringer Ingelheim International GmbH, priority 2011, dated 2013)

Assays:
U87 cells = experiment: alamarBlue U87 cell assay (antiproliferative/cytotoxicity); format: cell-based; conditions: U-87MG human glioblastoma cells
Source text: (§1) The H460, MB453, U87, MCF7 and BT474 alamarBlue cell assays provide EC50 values indicative of the antiproliferative or cytotoxic effects of the compounds to respectively the H460 (human non small cell line cancer), MB-453 (breast cancer cell line), U87 (glioblastoma cell line), MCF7 (breast cancer cell line) and BT474 (breast cancer cell line). As known in the field, antiproliferative or cytotoxic effect against this cell lines would be expected to be indicative of activity in treating lung, breast and brain cancers. See R. Marone R et al. Biochim. Biophys. Acta. 2008 January; 1784(1):159-85. S. Yaguchi et al., J. Natl. Cancer Inst. 2006 Apr. 19; 98(8):545-56.
(§2) Method Type: Antiproliferative/Cytotoxicity
(§3) alamarBlue® is designed to provide a rapid and sensitive measure of cell proliferation and cytotoxicity in various human and animal cell lines. The assay is based on the reduction of alamarBlue in the reducing environment of living (metabolically active) cells. In the presence of added cytotoxic or antiproliferative compounds, the innate metabolic activity ceases.
(§4) AlamarBlue is soluble and stable in culture medium. Measurements are made fluorometrically by exciting at 530-560 nm and measuring emission at 590 nm. In reporting percent alamarBlue reduction by monitoring fluorescence, data are expressed as fluorescence emission intensity units as a function of time of incubation.
(§5) 3. Equipment • 96-well plates, flat bottom (Falcon, Cat. No.: 353072) • 96-well plates, U-shaped (Costar, Cat. No.: 3799) • CO2-Incubator • Microplate Reader, Spectramax Plus, Molecular Devices 4. Typical Procedure • Day 0: Seed 3000 BT-474 cells (IMDM/5% FCS, 1% NEAA, 1% Sodiumpyruvat) in 150 μl medium into a 96-well plate, flat bottom (include mediumblank). Incubate plates at 37° C. in a CO2 incubator overnight. • Day 1: Dilute compounds to a concentration 40 μM ->1:3 in medium, 10 dilution steps, in 96-well plates. • Add 50 μl per well of each dilution (total volume per well 200 μl; final conc. of cpds: 10 μM ->1:3). If required, test further dilutions. • All concentrations are tested in duplicates. • Controls: Cells w/o cpd. (+50 μl medium/DMSO). • Cells are incubated with compounds for 5-6 days. • Day 6 or 7: Add 25 μl of alamarBlue solution to each well and incubate for 8 hours at 37° C. Measure fluorescence by exciting at 530-560 nm and measuring emission at 590 nm 5. Evaluation • Subtract average value for medium blank from sample readings • Calculate EC50 using GraphPad Prism (Fifty)

MB453 cells = experiment: alamarBlue MB453 cell assay (antiproliferative/cytotoxicity); format: cell-based; conditions: Homo sapiens; MDA MB 453 breast cancer cell line
Source text: as §1, §2, §3, §4, §5

H460 cells = experiment: alamarBlue H460 cell assay (antiproliferative/cytotoxicity); format: cell-based; conditions: NCI-H460; H460 human lung carcinoma cells
Summary of the method: (§6)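 Read-out: alamarBlue reduction by metabolically active cells, fluorescence ex 530-560 nm/em 590 nm, measured 8 h after dye addition at 37° C. Cells had been exposed to compound for 5-6 days over a 10-point 1:3 series starting at 10 μM final. EC50 derived after medium-blank subtraction.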

MCF7 cells = experiment: alamarBlue MCF7 cell assay (antiproliferative/cytotoxicity); format: cell-based; conditions: MCF7 human breast cancer cell line
Summary of the method: as §6

PI3Kalpha = target: T1, PI3Kalpha (Homo sapiens, UniProt P42336); experiment: Inhibition of PI3Kalpha-induced PIP-2 phosphorylation (filter-binding assay, 33P-ATP); format: biochemical; conditions: PI3 Kinase alpha (p85alpha/His-p110alpha), 1 μM ATP; read-out: IC50 PI3Kα
T1 construct: His (N); made in house; host or cells: SF9 insect cells (baculovirus co-infection)
T1 sequence (P27986 whole entry): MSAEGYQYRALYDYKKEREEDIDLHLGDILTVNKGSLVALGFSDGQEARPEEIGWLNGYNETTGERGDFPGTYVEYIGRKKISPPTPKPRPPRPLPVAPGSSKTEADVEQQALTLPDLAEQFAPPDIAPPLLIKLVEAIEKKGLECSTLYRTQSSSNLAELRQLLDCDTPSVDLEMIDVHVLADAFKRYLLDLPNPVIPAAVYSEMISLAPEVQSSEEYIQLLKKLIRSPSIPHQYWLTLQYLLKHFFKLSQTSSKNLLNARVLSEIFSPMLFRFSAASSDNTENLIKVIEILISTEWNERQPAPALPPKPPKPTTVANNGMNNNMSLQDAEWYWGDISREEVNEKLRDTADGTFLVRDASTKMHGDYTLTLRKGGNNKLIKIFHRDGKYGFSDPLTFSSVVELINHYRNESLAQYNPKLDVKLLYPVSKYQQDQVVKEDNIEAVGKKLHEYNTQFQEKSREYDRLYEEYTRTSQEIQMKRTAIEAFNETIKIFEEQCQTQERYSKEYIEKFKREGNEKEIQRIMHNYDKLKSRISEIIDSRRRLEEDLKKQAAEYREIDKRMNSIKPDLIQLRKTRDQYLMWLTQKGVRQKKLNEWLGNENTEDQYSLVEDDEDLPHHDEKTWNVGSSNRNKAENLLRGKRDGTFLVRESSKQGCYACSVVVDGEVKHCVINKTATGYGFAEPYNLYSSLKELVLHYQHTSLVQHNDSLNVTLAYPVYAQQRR
T1 sequence (P42336 whole entry): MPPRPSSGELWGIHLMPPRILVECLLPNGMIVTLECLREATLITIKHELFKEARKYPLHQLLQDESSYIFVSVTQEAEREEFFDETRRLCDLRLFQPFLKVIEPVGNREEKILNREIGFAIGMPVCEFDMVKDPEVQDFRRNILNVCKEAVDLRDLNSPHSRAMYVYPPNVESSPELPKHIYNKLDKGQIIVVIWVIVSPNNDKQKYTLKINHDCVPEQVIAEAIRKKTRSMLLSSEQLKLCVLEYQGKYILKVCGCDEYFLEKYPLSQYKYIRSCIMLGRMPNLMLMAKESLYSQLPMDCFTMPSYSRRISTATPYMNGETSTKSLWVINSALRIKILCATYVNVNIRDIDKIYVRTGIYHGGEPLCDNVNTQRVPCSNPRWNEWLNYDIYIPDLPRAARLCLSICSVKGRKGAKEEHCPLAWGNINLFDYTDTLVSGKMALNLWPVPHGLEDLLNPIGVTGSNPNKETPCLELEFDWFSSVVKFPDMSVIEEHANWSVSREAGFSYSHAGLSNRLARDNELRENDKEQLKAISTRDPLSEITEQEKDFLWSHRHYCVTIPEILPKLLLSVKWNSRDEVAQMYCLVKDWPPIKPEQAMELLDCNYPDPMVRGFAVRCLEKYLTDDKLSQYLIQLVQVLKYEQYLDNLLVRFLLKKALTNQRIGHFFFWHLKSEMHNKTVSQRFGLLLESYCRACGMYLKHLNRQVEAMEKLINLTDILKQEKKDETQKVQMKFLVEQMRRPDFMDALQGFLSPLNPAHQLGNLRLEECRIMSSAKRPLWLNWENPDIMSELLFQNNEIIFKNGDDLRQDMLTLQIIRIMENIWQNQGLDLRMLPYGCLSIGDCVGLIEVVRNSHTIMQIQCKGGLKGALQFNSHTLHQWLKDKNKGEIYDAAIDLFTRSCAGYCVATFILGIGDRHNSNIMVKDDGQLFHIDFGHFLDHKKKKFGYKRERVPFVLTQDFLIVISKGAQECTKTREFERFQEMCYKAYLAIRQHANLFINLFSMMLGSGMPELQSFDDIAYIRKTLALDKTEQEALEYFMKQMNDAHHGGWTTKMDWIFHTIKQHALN

BT474 cells = experiment: alamarBlue BT474 cell assay (antiproliferative/cytotoxicity); format: cell-based; conditions: BT-474 human breast cancer cell line, 5-6 days incubation
Summary of the method: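 After overnight plating of 3000 cells per well, compounds are applied as ten threefold dilutions (highest final 10 μM) in duplicate for 5-6 days. Viability is then gauged by an 8 h alamarBlue incubation and fluorescence readout, with EC50 calculated from medium-blank-corrected signals.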

| SMILES | EC50 (U87 cells) | EC50 (MB453 cells) | EC50 (H460 cells) | EC50 (MCF7 cells) | IC50 (PI3Kalpha) | EC50 (BT474 cells) |
| --- | --- | --- | --- | --- | --- | --- |
| CCc1ncnc(-c2ccnc(C)c2)c1C#Cc1cnc(C)c(NS(C)(=O)=O)c1 [Example 4, N-{5-[4-Ethyl-6-(2-methyl-pyridin-4-yl)-pyrimidin-5-ylethynyl]-2-methyl-pyridin-3-yl}-methanesulfonamide] | 383 nM | 75 nM | 329 nM | 27 nM | 2 nM | 171 nM |
| CCc1ncnc(-c2ccnc(C(C)(C)C)c2)c1C#Cc1cnc(C)c(NS(C)(=O)=O)c1 [Example 75, N-{5-[4-(2-tert-Butyl-pyridin-4-yl)-6-ethyl-pyrimidin-5-ylethynyl]-2-methyl-pyridin-3-yl}-methanesulfonamide] | 449 nM | 143 nM | 200 nM | 79 nM | 1 nM | 169 nM |
| CCc1ncnc(-c2ccccc2)c1C#Cc1cnc(C)c(NS(C)(=O)=O)c1 [Example 52, N-[5-(4-Ethyl-6-phenyl-pyrimidin-5-ylethynyl)-2-methyl-pyridin-3-yl]-methanesulfonamide] | 1020 nM | 452 nM | 1210 nM | 154 nM | 3 nM | 520 nM |
| CCc1ncnc(-c2ccc(C(=O)N3CCN(C)CC3)c(F)c2)c1C#Cc1cnc(C)c(NS(=O)(=O)c2ccc(F)cc2F)c1 [Example 27, N-(5-{4-Ethyl-6-[3-fluoro-4-(4-methyl-piperazine-1-carbonyl)-phenyl]-pyrimidin-5-ylethynyl}-2-methyl-pyridin-3-yl)-2,4-difluoro-benzenesulfonamide] | 75 nM | 33 nM | 192 nM | 11 nM | 0.5 nM | 51 nM |
| CCc1ncnc(-c2ccc(CN)cc2)c1C#Cc1cnc(C)c(NS(C)(=O)=O)c1 [Example 78, N-{5-[4-(4-Aminomethyl-phenyl)-6-ethyl-pyrimidin-5-ylethynyl]-2-methyl-pyridin-3-yl}-methanesulfonamide] | 892 nM | 240 nM | 2400 nM | 549 nM | 4 nM | 524 nM |
| Cc1cc(C)cc(-c2ncnc(C)c2C#Cc2cnc(C)c(NS(C)(=O)=O)c2)c1 [Example 43, N-{5-[4-(3,5-Dimethyl-phenyl)-6-methyl-pyrimidin-5-ylethynyl]-2-methyl-pyridin-3-yl}-elmethanesulfonamide] | 900 nM | 639 nM | 337 nM | 270 nM | 3 nM | 897 nM |
| CCc1ncnc(-c2ccnc(C)c2)c1C#Cc1cnc(C)c(NS(=O)(=O)c2ccc(C)cc2C)c1 [Example 92, N-{5-[4-Ethyl-6-(2-methyl-pyridin-4-yl)-pyrimidin-5-ylethynyl]-2-methyl-pyridin-3-yl}-2,4-dimethyl-benzenesulfonamide] | 983 nM | 986 nM | 365 nM | 228 nM | 7 nM | 483 nM |
| COc1ncc(C#Cc2c(C)ncnc2-c2ccnc(C)c2)cc1NS(=O)(=O)c1ccc(F)cc1F [Example 44, 2,4-Difluoro-N-{2-methoxy-5-[4-methyl-6-(2-methyl-pyridin-4-yl)-pyrimidin-5-ylethynyl]-pyridin-3-yl}-benzenesulfonamide] | 121 nM | 37 nM | 15 nM | 3 nM | 0.55 nM | 23 nM |
| CCc1nc(N)nc(-c2ccc(C)nc2)c1C#Cc1cnc(C)c(NS(=O)(=O)c2ccc(F)cc2F)c1 [Example 36, N-{5-[2-Amino-4-ethyl-6-(6-methyl-pyridin-3-yl)-pyrimidin-5-ylethynyl]-2-methyl-pyridin-3-yl}-2,4-difluoro-benzenesulfonamide] | 127 nM | 37 nM | 30 nM | 10 nM | 0.56 nM | 41 nM |
| CCc1ncnc(-c2ccnc(C)c2)c1C#Cc1cnc(C)c(NS(=O)(=O)c2ccc(Cl)cc2)c1 [Example 85, 4-Chloro-N-{5-[4-ethyl-6-(2-methyl-pyridin-4-yl)-pyrimidin-5-ylethynyl]-2-methyl-pyridin-3-yl}-benzenesulfonamide] | 980 nM | 499 nM | 352 nM | 88 nM | 1 nM | 302 nM |
| CCc1ncnc(-c2ccc(C)nc2)c1C#Cc1cnc(C)c(NS(C)(=O)=O)c1 [Example 3, N-{5-[4-Ethyl-6-(6-methyl-pyridin-3-yl)-pyrimidin-5-ylethynyl]-2-methyl-pyridin-3-yl}-methanesulfonamide] | 410 nM | 112 nM | 368 nM | 23 nM | 1 nM | 177 nM |
| CCc1ncnc(-c2ccc(CNC(=O)OC(C)(C)C)nc2)c1C#Cc1cnc(C)c(NS(=O)(=O)c2ccccc2)c1 [Example 50, {5-[5-(5-Benzene-sulfonylamino-6-methyl-pyridin-3-ylethynyl)-6-ethyl-pyrimidin-4-yl]-pyridin-2-ylmethyl}-carbamic acid tert-butyl ester] | 104 nM | 115 nM | 104 nM | 27 nM | 0.43 nM | 102 nM |
| Cc1cc(-c2ncnc(C)c2C#Cc2cncc(NS(C)(=O)=O)c2)ccn1 [Example 95, N-{5-[4-Methyl-6-(2-methyl-pyridin-4-yl)-pyrimidin-5-ylethynyl]-pyridin-3-yl}-methanesulfonamide] | 391 nM | 483 nM | 2020 nM | 407 nM | 2 nM | 1650 nM |
| Cc1ccc(-c2ncnc(C)c2C#Cc2cnc(C)c(NS(C)(=O)=O)c2)cn1 [Example 40, N-{2-Methyl-5-[4-methyl-6-(6-methyl-pyridin-3-yl)-pyrimidin-5-ylethynyl]-pyridin-3-yl}-methanesulfonamide] | 1170 nM | 411 nM | 1960 nM | 188 nM | 3 nM | 597 nM |
| CCc1ncnc(-c2ccc(CNC(=O)OC(C)(C)C)nc2)c1C#Cc1cnc(C)c(NS(=O)(=O)c2ccc(F)cc2F)c1 [Example 48, (5-{5-[5-(2,4-Difluoro-benzenesulfonylamino)-6-methyl-pyridin-3-ylethynyl]-6-ethyl-pyrimidin-4-yl}-pyridin-2-ylmethyl)-carbamic acid tert-butyl ester] | 89 nM | 89 nM | 63 nM | 3 nM | 0.42 nM | 26 nM |
| CCc1ncnc(-c2ccc(OC)c(F)c2)c1C#Cc1cnc(C)c(NS(C)(=O)=O)c1 [Example 8, N-{5-[4-Ethyl-6-(3-fluoro-4-methoxy-phenyl)-pyrimidin-5-ylethynyl]-2-methyl-pyridin-3-yl}-methanesulfonamide] | 910 nM | 184 nM | 241 nM | 99 nM | 1 nM | 279 nM |
| Cc1ncc(C#Cc2c(C)ncnc2-c2ccc(C(=O)N3CCN(C)CC3)c(F)c2)cc1NS(C)(=O)=O [Example 37, N-(5-{4-[3-Fluoro-4-(4-methyl-piperazine-1-carbonyl)-phenyl]-6-methyl-pyrimidin-5-ylethynyl}-2-methyl-pyridin-3-yl)-methanesulfonamide] | 3040 nM | 685 nM | 25000 nM | 4000 nM | 5 nM | 1020 nM |
